Patent US10766857B2, “Compound having BLT inhibitory activity and composition, for preventing or treating inflammatory diseases, comprising same as active ingredient” (DONGGUK UNIVERSITY INDUSTRY-ACADEMIC COOPERATION FOUNDATION, priority 2015, dated 2020)
Blank lines part the entries; values can stand above or below the compound they belong to.

Tests used:
[1] = molecular target: T1, BLT2-expressing cells (CHO-BLT2 cells) (Homo sapiens, UniProt Q9NPC1); test: MTT cell growth of LTB4-stimulated BLT2-expressing cells; format: cell-based; conditions: LTB4 300 nM; for inhibition at 10 µM: read-out: growth inhibitory effect; for cell growth compared with the control DMSO: pre-treated at 10 μM
T1 construct: HA; expressed in transfected cells
T1 sequence (Q9NPC1 with tags, fused parts or gaps): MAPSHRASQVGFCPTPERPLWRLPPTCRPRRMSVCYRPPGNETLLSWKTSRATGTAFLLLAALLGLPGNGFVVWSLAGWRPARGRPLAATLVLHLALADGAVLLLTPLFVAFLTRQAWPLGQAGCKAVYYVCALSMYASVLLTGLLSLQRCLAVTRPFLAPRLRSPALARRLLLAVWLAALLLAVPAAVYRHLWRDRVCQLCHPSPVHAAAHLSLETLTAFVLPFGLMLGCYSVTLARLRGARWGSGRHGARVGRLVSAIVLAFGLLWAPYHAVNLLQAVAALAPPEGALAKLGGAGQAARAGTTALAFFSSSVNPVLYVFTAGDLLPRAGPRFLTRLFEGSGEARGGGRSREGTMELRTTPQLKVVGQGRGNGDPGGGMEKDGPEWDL
Procedure: Cell viability according to treatment of the compounds prepared in the examples were measured by a 3-(4,5-dimethylthiazol-2-yl)-2,5-diphenyltetrazolium bromide (MTT) method.
More specifically, 1×10^4 each of the BLT2-nonexpressing cells (CHO-pcDNA3.1 cells) and BLT2-expressing cells (CHO-BLT2 cells), which were prepared in Experimental Example 1, were dispensed in a […], and cultured for 24 hours. Afterward, the culture medium was removed, a serum-free RPMI medium was added, and after two hours, the cells were pre-treated with each of the compound prepared in one of the examples (10 μM), 10 μM DMSO (compound solvent) as a control, and 10 μM 1-[5-ethyl-2-hydroxy-4-[[6-methyl-6-(1H-tetrazol-5-yl)heptyl]oxy]phenyl]-ethanone (LY255283; Cayman) as a positive control for 1 hour. Subsequently, after treatment of LTB4 (300 nM), the cells were cultured for 24 hours. 20 μL of an MTT solution (5 mg/mL, Sigma-Aldrich) was added to each well, the cells were cultured in a humid CO2 incubator at 37° C. for 4 hours, a supernatant was removed, and 200 μL of DMSO was added to each well to dissolve insoluble violet formazan crystals. Absorbance was measured using a microplate reader (Molecular Devices, Sunnyvale, Calif.) at 550 nm, and the measurement was repeated three times.

BLT1 = molecular target: T2, BLT1 (Homo sapiens, UniProt Q15722); test: LTB4-induced chemotactic motility, Transwell, CHO-BLT1 cells; format: cell-based; conditions: 10 μM pre-treatment, LTB4 10 nM
T2 construct: expressed in transfected cells; host or cells: CHO cells stably expressing BLT1 (CHO-BLT1)
Procedure: (§1) Chemotactic motility was analyzed using a Transwell chamber including a polycarbonate filter (8-μm pore size, Corning Costar) with a 6.5-mm diameter. Specifically, the lower surface of the filter was coated with 10 μg/mL fibronectin in a serum-free RPMI 1640 medium at 37° C. for 1 hour. The experiment was performed by placing the filter dried and coated with RPMI 1640 media containing various amounts of LTB4 in the lower wells of the Transwell chamber, and loading CHO cells stably expressing BLT1 and BLT2 into the upper wells containing serum-free RPMI 1640 media finally at 2×10^4 cells/100 μL. To evaluate the effect of inhibitors, the cells were pre-treated with each inhibitor for 30 minutes before dispensing. After the cells were cultured at 37° C. in 5% CO2 for 3 hours, the filters were fixed with methanol for 3 minutes, and stained with hematoxylin and eosin for 10 minutes. In the experiment, the cells were BLT2-expressing cells (CHO-BLT2 cells) and BLT1-expressing cells (CHO-BLT1 cells), and LY255283 and U75302 were used as positive controls for each type of the cells, and BLT2 ligand LTB4, (300 nM), BLT1 ligand LTB4 (10 nM), and lysophosphatidic acid (LPA; 100 nM) were used as comparative controls. The chemotactic motility was quantitatively analyzed by counting the cells on the lower side of the filter under an optical microscope (magnification, 200×). For each analysis, 6 fields were subjected to counting, each sample was analyzed twice, and the analysis was repeated three times.

BLT2 = molecular target: T3, BLT2 (Homo sapiens, UniProt Q9NPC1); test: LTB4-induced chemotactic motility, Transwell, CHO-BLT2 cells; format: cell-based; conditions: LTB4 300 nM; for inhibition at 10 µM: read-out: chemotactic motility inhibited compared with LTB4 (DMSO+)
T3 construct: HA; expressed in transfected cells
T3 sequence (Q9NPC1 with tags, fused parts or gaps): T1 sequence (Q9NPC1 with tags, fused parts or gaps)
Procedure: as §1

[2] = tested on: cancer cells (MDA-MB-231); test: Metastasis of breast cancer cells in nude mice; format: in vivo; conditions: MDA-MB-231 in nude mice, i.p.; LMT-696 and LY255283 2.5 mg/kg, U75302 0.25 mg/kg; 15 weeks
Procedure: An experiment for the metastasis of breast cancer cells according to the treatment of the compound of the present invention was approved by the Ethics Committee of Korea University, and all experimental animals used in this experiment were treated according to the approved guidelines of the Korea University Animal Care and Use Committee. Six-week-old female nude mice (Charles River, Wilmington, Mass.) were injected with cancer cells to confirm cancer cell metastasis. The breast cancer cells were pre-treated with the compound of the present invention (LMT-696, 10 μM), LY255283, U75302 and DMSO, and 24 hours later, harvested with trypsin-EDTA, resuspended in PBS, and then 2×10^6 of the breast cancer cells were intraperitoneally injected into mice anesthetized with zoletil (50 mg/kg). After five days, the compound of the present invention (LMT-696; 2.5 mg/kg), LY255283 (2.5 mg/kg), U75302 (0.25 mg/kg) and DMSO were injected intraperitoneally three times every five days. At 15 weeks after the injection of the breast cancer cells, the mice were dissected to observe the cancer cell metastasis.

[3] = tested on: asthma-induced mice (OVA+LPS); test: OVA+LPS-induced severe asthma mice: AHR and cell influx; format: in vivo; conditions: 10 mg/kg, airway constrictor 50 mg/ml
Source text: Mast cells play a pivotal role in the initial reaction to asthma, and when an allergen enters the body from the outside through an airway, the mast cells are activated, thereby secreting various cytokines (interleukin-4 and interleukin-13). Due to the cytokines, the influx of inflammatory cells, the generation of mucus and the airway contraction occur. The inventors used 7-week-old (18 to 20 g) female BALB/c mice provided by Orient (Seoungnam, Korea) for the experiment to confirm the antiasthma effect, and then the asthma was induced in the mice. On the first and 14th days, 2.5 mg of an adjuvant, aluminum hydroxide gel (alum; Pierce, Rockford, Ill.) was included in […] of ovalbumin (OVA) to intraperitoneally sensitize female […] mice. On the 21st, 22nd and 23rd days of two initial sensitizations, 1% OVA was sprayed into the mice using an ultrasonic nebulizer. The compound of the present invention (LMT-696; 5 mg/kg), LY255283 (5 mg/kg, Cayman) or DMSO was intraperitoneally injected at the 1 hour before the 1% OVA spraying. On the 24th day of the initial sensitization, airway hyperresponsiveness (AHR) was detected, and on the 25th day, the mice were dissected to observe asthma phenotypes, for example, inflammatory cytokine IL-4 expression and the influx of inflammatory cells (neutrophils). In the case of lipopolysaccharide (LPS)-induced severe asthma animal models, on the 0, 1st, 2nd and 7th days, 75 μg of OVA and 1 mg of LPS were intranasally injected into Balb/c mice for sensitization. On the 14th, 15th, 21th and 22th days, 50 μg of OVA was injected into the nose for a challenge. The compound of the present invention (LMT-1013) (1, 3, 10 or 30 mg/kg), montelukast (10 mg/kg, DRS) or a control buffer (10% DMA, 5% Tween 80, 85% brine) were treated one hour before the challenge by injecting 50 μg of OVA into the nose. On the 23rd day of the initial sensitization, AHR was detected, and on the 24th day, the mice were dissected to observe a severe asthma phenotype, for example, the influx of the inflammatory cells (neutrophils). In addition, the AHR detection was performed after an airway constrictor, methacholine (6.25 to 50 mg/ml depending on conditions), was administered to the mice. The administration of the airway constrictor was performed by spraying through an inlet of the chamber using an ultrasonic nebulizer for 3 minutes. The AHR was analyzed using an enhanced pause as the indicator of the asthma phenomenon. Bronchoalveolar lavage fluid cell counts were quantified by counting cells under an optical microscope (magnification, 200×). In each analysis, 4 fields were subjected to counting, each sample was analyzed twice, and the analysis was repeated three times.

T2 sequence (Q15722 whole entry, species assumed): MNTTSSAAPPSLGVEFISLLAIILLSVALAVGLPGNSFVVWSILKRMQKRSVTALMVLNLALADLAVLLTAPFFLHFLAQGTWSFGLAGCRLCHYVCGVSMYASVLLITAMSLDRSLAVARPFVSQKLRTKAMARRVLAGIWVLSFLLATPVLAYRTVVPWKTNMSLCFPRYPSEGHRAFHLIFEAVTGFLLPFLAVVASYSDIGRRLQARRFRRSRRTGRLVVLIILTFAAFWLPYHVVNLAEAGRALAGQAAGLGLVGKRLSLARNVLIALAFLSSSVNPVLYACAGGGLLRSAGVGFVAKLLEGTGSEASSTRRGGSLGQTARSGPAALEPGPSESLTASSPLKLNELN

SMILES: CCCCC(=O)N(CC#Cc1ccc(C(=O)NCCN(C)C)cc1)c1ccccc1 [LMT-1016, N-(2-(dimethylamino)ethyl)-4-(3-(N-phenylpentaneamido)prop-1-yn-1-yl)benzamide]
inhibition at 10 µM [1]: 99%

SMILES: CCCCC(=O)N(CC#Cc1ccc(C(=O)N2CCN(C(C)C)CC2)cc1)c1ccc(F)cc1 [LMT-841, N-(4-fluorophenyl)-N-(3-(4-(4-isopropylpiperazine-1-carbonyl)phenyl)prop-2-ynyl)pentaneamide]
inhibition at 10 µM [1]: 60%

SMILES: CC(C)(O)c1ccccc1CC[C@@H](SCC1(CC(=O)O)CC1)c1cccc(/C=C/c2ccc3ccc(Cl)cc3n2)c1 [montelukast, reference compound]
AHR reduced [3]: 64%

SMILES: CCCCC(=O)N(CC#Cc1cccc(C(=O)N2CCNCC2)c1)c1ccccc1 [LMT-837, N-phenyl-N-(3-(3-(piperazine-1-carbonyl)phenyl)prop-2-ynyl)pentaneamide]
inhibition at 10 µM [1]: 65%

SMILES: CCCCC(=O)N(CC#Cc1ccc(C(=O)N2CCN(C)CC2)cc1)c1ccccc1 [LMT-692, N-(3-(4-(4-methylpiperazine-1-carbonyl)phenyl)prop-2-ynyl)-N-phenylpentanamide]
cell growth compared with the control DMSO [1]: 88.0%
inhibitory effect on chemotactic motility (BLT1): did not exhibit the inhibitory effect
inhibition at 10 µM (BLT2; 10 μM pre-treatment): 66%
IC50 (BLT2; serum-free, read-out: IC50 of chemotactic motility inhibition): 7.57 µM

SMILES: CCCCC(=O)N(CC#Cc1ccc(C(=O)N(CC)CC)cc1)c1ccccc1 [LMT-883, N,N-diethyl-4-(3-(N-phenylpentaneamido)prop-1-ynyl)benzamide]
inhibition at 10 µM [1]: 99%

Now from value to compound, other results behind:

cell growth compared with the control DMSO [1]: 16.7%
inhibitory effect on chemotactic motility (BLT1): did not exhibit the inhibitory effect
inhibition at 10 µM (BLT2; 10 μM pre-treatment): 90%
SMILES: CCCCC(=O)N(CC#Cc1ccc(C(=O)N2CCNCC2)cc1)c1ccccc1 [LMT-694, N-phenyl-N-(3-(4-(piperazine-1-carbonyl)phenyl)prop-2-ynyl)pentanamide]

chemotactic motility as compared with cells treated with the ligand LTB4 (BLT1): 90%
SMILES: CCCCC/C=C\C[C@@H](O)/C=C/c1cccc(C[C@@H](O)CCCCO)n1 [U75302, reference compound]
metastasis of the cancer cells inhibited as compared with the control [2]: not inhibited

inhibition at 10 µM [1]: 99%
SMILES: CCCCC(=O)N(CC#Cc1ccc(C(=O)NC(C)C(=O)O)cc1)c1ccccc1 (stereo not drawn) [LMT-1019, 2-(4-(3-(N-phenylpentaneamido)prop-1-yn-1-yl)benzamido)propanoic acid]

inhibition at 10 µM [1]: 99%
SMILES: CCCCC(=O)N(CC#Cc1ccc(C(=O)N2CCN(C(C)C)CC2)cc1)c1cccc(F)c1 [LMT-886, N-(3-fluorophenyl)-N-(3-(4-(4-isopropylpiperazine-1-carbonyl)phenyl)prop-2-ynyl)pentaneamide]

cell growth compared with the control DMSO [1]: approximately 90%
chemotactic motility as compared with cells treated with the ligand LTB4 (BLT2; 10 μM pre-treatment): 90%
SMILES: CCc1cc(C(C)=O)c(O)cc1OCCCCCC(C)(C)c1nnn[nH]1 [LY255283, 1-[5-ethyl-2-hydroxy-4-[[6-methyl-6-(1H-tetrazol-5-yl)heptyl]oxy]phenyl]-ethanone, reference compound]
metastasis of the cancer cells inhibited as compared with the control [2]: 36%

inhibition at 10 µM [1]: 71.6%
SMILES: CCCCC(=O)N(CC#Cc1ccc(C(=O)NC(C)C(=O)OC)cc1)c1ccccc1 (stereo not drawn) [LMT-1018, methyl 2-(4-(3-(N-phenylpentaneamido)prop-1-yn-1-yl)benzamido)propanoate]

inhibition at 10 µM [1]: 70%
SMILES: CCCCC(=O)N(CC#Cc1cccc(C(=O)N2CCN(C(C)C)CC2)c1)c1ccccc1 [LMT-842, N-(3-(3-(4-isopropylpiperazine-1-carbonyl)phenyl)prop-2-ynyl)-N-phenylpentaneamide]
